In US11111251B2, “Positive allosteric modulators of the muscarinic acetylcholine receptor M1” (Vanderbilt University, priority 2016, dated 2021):

Biological target: T1, human mAChR M1 (Homo sapiens, UniProt P11229)
T1 sequence (P11229 1-460): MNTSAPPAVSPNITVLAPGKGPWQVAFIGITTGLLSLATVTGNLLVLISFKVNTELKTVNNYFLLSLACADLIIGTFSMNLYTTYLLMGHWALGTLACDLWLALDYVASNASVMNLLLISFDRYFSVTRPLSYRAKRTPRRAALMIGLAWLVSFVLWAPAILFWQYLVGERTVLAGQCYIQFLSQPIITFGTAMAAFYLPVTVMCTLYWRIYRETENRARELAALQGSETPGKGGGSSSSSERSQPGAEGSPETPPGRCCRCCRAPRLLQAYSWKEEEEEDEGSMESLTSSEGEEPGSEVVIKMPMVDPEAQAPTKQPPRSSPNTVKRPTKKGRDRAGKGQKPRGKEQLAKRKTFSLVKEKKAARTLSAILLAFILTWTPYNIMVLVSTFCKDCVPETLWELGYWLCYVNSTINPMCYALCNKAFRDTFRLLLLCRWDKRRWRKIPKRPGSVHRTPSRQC
Assay: mAChR M1 cell-based functional assay: calcium mobilization, positive allosteric modulator mode (increase in EC20 acetylcholine response)
Conditions: Table 2, human M1; for EC50: read-out: Human M1 EC50; for Emax: read-out: Human M1 Emax (%)
Outline: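 PAM potency reflects the concentration-dependent increase in calcium response to an EC20 acetylcholine challenge, given 144 s into a 300 s read after compound addition at 4 s (EC80 follows at 230 s). Cells were hM1-expressing CHO-K1, loaded 50 min with Fluo-4 AM. Curves used 11 points at 1:3 dilutions and four-parameter logistic fitting.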

EC50	Emax	SMILES
373 nM	93%	Cc1nc(-c2ccc(Cc3cc(C(=O)NC4CCCNC4=O)nc4ccsc34)cc2)co1 (stereo not shown) [Compound 171, 7-[[4-(2-methyloxazol-4-yl)phenyl]methyl]-N-(2-oxo-3-piperidyl)thieno[3,2-b]pyridine-5-carboxamide]
362 nM	93.2%	Cc1nc(-c2ccc(Cc3cc(C(=O)N[C@@H]4CC[C@H]4O)nc4ccsc34)cc2)cs1 [Compound 176, N-[(1R,2R)-2-hydroxycyclobutyl]-7-[[4-(2-methylthiazol-4-yl)phenyl]methyl]thieno[3,2-b]pyridine-5-carboxamide]
652 nM	86%	Cc1nc(-c2ccc(Cc3cc(C(=O)NC4CC5(COC5)C4)nc4ccsc34)cc2)cs1 [Compound 178, 7-[[4-(2-methylthiazol-4-yl)phenyl]methyl]-N-(2-oxaspiro[3.3]heptan-6-yl)thieno[3,2-b]pyridine-5-carboxamide]
3800 nM	65.2%	Cc1nc(-c2ccc(Cc3cc(C(=O)NC4CN(C(C)(C)C)C4)nc4ccsc34)cc2)cs1 [Compound 179, N-(1-tert-butylazetidin-3-yl)-7-[[4-(2-methylthiazol-4-yl)phenyl]methyl]thieno[3,2-b]pyridine-5-carboxamide]
3300 nM	72.1%	COC1CC(NC(=O)c2cc(Cc3ccc(-c4csc(C)n4)cc3)c3sccc3n2)C1 (stereo not shown) [Compound 180, N-(3-methoxycyclobutyl)-7-[[4-(2-methylthiazol-4-yl)phenyl]methyl]thieno[3,2-b]pyridine-5-carboxamide]
3820 nM	64%	Cc1nc(-c2ccc(Cc3cc(C(=O)NC4CC(F)C4)nc4ccsc34)cc2)cs1 (stereo not shown) [Compound 181, N-(3-fluorocyclobutyl)-7-[[4-(2-methylthiazol-4-yl)phenyl]methyl]thieno[3,2-b]pyridine-5-carboxamide]
183 nM	84%	Cc1nc(-c2ccc(Cc3cc(C(=O)N[C@@H]4CCC[C@H]4O)nc4ccsc34)cc2)cs1 [Compound 182, N-[(1R,2R)-2-hydroxycyclopentyl]-7-[[4-(2-methylthiazol-4-yl)phenyl]methyl]thieno[3,2-b]pyridine-5-carboxamide]
2530 nM	67.3%	Cc1nc(-c2ccc(Cc3cc(C(=O)N[C@@H]4CCOC4)nc4ccsc34)cc2)cs1 [Compound 183, 7-[[4-(2-methylthiazol-4-yl)phenyl]methyl]-N-[(3R)-tetrahydrofuran-3-yl]thieno[3,2-b]pyridine-5-carboxamide]
3610 nM	68.5%	Cc1nc(-c2ccc(Cc3cc(C(=O)N[C@H]4CCOC4)nc4ccsc34)cc2)cs1 [Compound 184, 7-[[4-(2-methylthiazol-4-yl)phenyl]methyl]-N-[(3S)-tetrahydrofuran-3-yl]thieno[3,2-b]pyridine-5-carboxamide]
3290 nM	74.2%	Cc1nc(-c2ccc(Cc3cc(C(=O)NC4CCCN(C)C4)nc4ccsc34)cc2)cs1 (stereo not shown) [Compound 186, N-(1-methyl-3-piperidyl)-7-[[4-(2-methylthiazol-4-yl)phenyl]methyl]thieno[3,2-b]pyridine-5-carboxamide]
3200 nM	72.1%	Cc1nc(-c2ccc(Cc3cc(C(=O)NC4CCN(C)CC4)nc4ccsc34)cc2)cs1 [Compound 187, N-(1-methyl-4-piperidyl)-7-[[4-(2-methylthiazol-4-yl)phenyl]methyl]thieno[3,2-b]pyridine-5-carboxamide]
59.6 nM	80.7%	Cc1nc(-c2ccc(Cc3cc(C(=O)N[C@H]4CCCC[C@@H]4O)nc4ccsc34)cc2)cs1 [Compound 194, N-[(1S,2S)-2-hydroxycyclohexyl]-7-[[4-(2-methylthiazol-4-yl)phenyl]methyl]thieno[3,2-b]pyridine-5-carboxamide]
234 nM	81.3%	Cc1nc(-c2ccc(Cc3cc(C(=O)N[C@H]4CCCCC[C@@H]4O)nc4ccsc34)cc2)cs1 [Compound 196, N-[(1S,2S)-2-hydroxycycloheptyl]-7-[[4-(2-methylthiazol-4-yl)phenyl]methyl]thieno[3,2-b]pyridine-5-carboxamide]
484 nM	90%	Cc1nc(-c2ccc(Cc3cc(C(=O)NC4CCCNC4=O)nc4ccsc34)cc2)cs1 (stereo not shown) [Compound 198, 7-[[4-(2-methylthiazol-4-yl)phenyl]methyl]-N-(2-oxo-3-piperidyl)thieno[3,2-b]pyridine-5-carboxamide]

More lines, now with the values behind:

SMILES	EC50	Emax
Cc1nc(-c2ccc(Cc3cc(C(=O)N[C@@H]4CCCCC[C@H]4O)nc4ccsc34)cc2)co1 [Compound 170, N-[(1R,2R)-2-hydroxycycloheptyl]-7-[[4-(2-methyloxazol-4-yl)phenyl]methyl]thieno[3,2-b]pyridine-5-carboxamide]	150 nM	82.9%
Cc1nc(-c2ccc(Cc3cc(C(=O)NC4CCCCNC4=O)nc4ccsc34)cc2)co1 (stereo not shown) [Compound 172, 7-[[4-(2-methyloxazol-4-yl)phenyl]methyl]-N-(2-oxoazepan-3-yl)thieno[3,2-b]pyridine-5-carboxamide]	685 nM	88.8%
Cc1nc(-c2ccc(Cc3cc(C(=O)N4CCC[C@@H](O)C4)nc4ccsc34)cc2)co1 [Compound 173, [(3R)-3-hydroxy-1-piperidyl]-[7-[[4-(2-methyloxazol-4-yl)phenyl]methyl]thieno[3,2-b]pyridin-5-yl]methanone]	> 10000 nM	37%
Cc1nc(-c2ccc(Cc3cc(C(=O)N4CCC(C)(O)CC4)nc4ccsc34)cc2)co1 [Compound 174, (4-hydroxy-4-methyl-1-piperidyl)-[7-[[4-(2-methyloxazol-4-yl)phenyl]methyl]thieno[3,2-b]pyridin-5-yl]methanone]	> 10000 nM	45.1%
Cn1cc(-c2ccc(Cc3cc(C(=O)NC4CC5(COC5)C4)nc4ccsc34)cc2)nn1 [Compound 175, 7-[[4-(1-methyltriazol-4-yl)phenyl]methyl]-N-(2-oxaspiro[3.3]heptan-6-yl)thieno[3,2-b]pyridine-5-carboxamide]	17.7 nM	84.3%
Cc1nc(-c2ccc(Cc3cc(C(=O)NC4(C)COC4)nc4ccsc34)cc2)cs1 [Compound 177, N-(3-methyloxetan-3-yl)-7-[[4-(2-methylthiazol-4-yl)phenyl]methyl]thieno[3,2-b]pyridine-5-carboxamide]	> 10000 nM	39.7%
Cc1nc(-c2ccc(Cc3cc(C(=O)NC4CCCCC4)nc4ccsc34)cc2)cs1 [Compound 185, N-cyclohexyl-7-[[4-(2-methylthiazol-4-yl)phenyl]methyl]thieno[3,2-b]pyridine-5-carboxamide]	4230 nM	52.1%
Cc1nc(-c2ccc(Cc3cc(C(=O)N[C@@H]4CCCOC4)nc4ccsc34)cc2)cs1 [Compound 188, 7-[[4-(2-methylthiazol-4-yl)phenyl]methyl]-N-[(3R)-tetrahydropyran-3-yl]thieno[3,2-b]pyridine-5-carboxamide]	1790 nM	83.2%
Cc1nc(-c2ccc(Cc3cc(C(=O)N[C@H]4CCCOC4)nc4ccsc34)cc2)cs1 [Compound 189, 7-[[4-(2-methylthiazol-4-yl)phenyl]methyl]-N-[(3S)-tetrahydropyran-3-yl]thieno[3,2-b]pyridine-5-carboxamide]	6270 nM	72%
Cc1nc(-c2ccc(Cc3cc(C(=O)N(C)C4CCOCC4)nc4ccsc34)cc2)cs1 [Compound 190]	6140 nM	75.5%
Cc1nc(-c2ccc(Cc3cc(C(=O)NC4CCOCC4)nc4ccsc34)cc2)cs1 [Compound 191, 7-[[4-(2-methylthiazol-4-yl)phenyl]methyl]-N-tetrahydropyran-4-yl-thieno[3,2-b]pyridine-5-carboxamide]	247 nM	86.9%
Cc1nc(-c2ccc(Cc3cc(C(=O)N[C@H]4CCOC[C@@H]4O)nc4ccsc34)cc2)cs1 [Compound 192, N-[(3R,4S)-3-hydroxytetrahydropyran-4-yl]-7-[[4-(2-methylthiazol-4-yl)phenyl]methyl]thieno[3,2-b]pyridine-5-carboxamide]	15.3 nM	78.7%
Cc1nc(-c2ccc(Cc3cc(C(=O)N[C@H]4COCC[C@@H]4O)nc4ccsc34)cc2)cs1 [Compound 193, N-[(3S,4S)-4-hydroxytetrahydropyran-3-yl]-7-[[4-(2-methylthiazol-4-yl)phenyl]methyl]thieno[3,2-b]pyridine-5-carboxamide]	31.1 nM	85.7%
CO[C@H]1CCCC[C@@H]1NC(=O)c1cc(Cc2ccc(-c3csc(C)n3)cc2)c2sccc2n1 [Compound 195, N-[(1S,2S)-2-methoxycyclohexyl]-7-[[4-(2-methylthiazol-4-yl)phenyl]methyl]thieno[3,2-b]pyridine-5-carboxamide]	2390 nM	81.8%
Cc1nc(-c2ccc(Cc3cc(C(=O)NC4CCN5CCCC45)nc4ccsc34)cc2)cs1 (stereo not shown) [Compound 197, N-(hexahydro-1H-pyrrolizin-1-yl)-7-[[4-(2-methylthiazol-4-yl)phenyl]methyl]thieno[3,2-b]pyridine-5-carboxamide]	1380 nM	80.8%
